Measured values reported in ChEMBL document CHEMBL3885861, “Open TG-GATES”.

Species: Rattus norvegicus
Assay: Open TG-GATES - Regimen: Single
Assay type: toxicity, organism-based, Sprague-Dawley
Parameters: regimen Single, gender Male, age 6 weeks
Settings: in vivo, po, 50 mg/kg, route gavage, dose level High; for APTT / Bas / Eos / Fbg / Hb / Ht / Lym / MCH / MCHC / MCV / Mono / Neu / PT / Plat / RBC / Ret / WBC: tissue Blood; for LIVER: tissue Liver; for A/G / ALP / ALT / AST / BUN / CRE / Ca / Cl / DBIL / GLC / IP / K / LDH / Na / PL / RALB / TBIL / TC / TG / TP / gamma-GTP: tissue Plasma

In the case of `C=C(C)[C@H]1Cc2c(ccc3c2O[C@@H]2COc4cc(OC)c(OC)cc4[C@@H]2C3=O)O1` [ROTENONE], the TERMINAL_BW (3 h) was 195.9 g, the APTT (3 h) was 15.9 s and the Bas (3 h) was 0%. It also gave an Eos (3 h) of 0.8%, a Fbg (3 h) of 204.8 mg/dL and a Hb (3 h) of 13.2 g/dL. It also gave a Ht (3 h) of 40.1%, a Lym (3 h) of 73.4% and an MCH (3 h) of 20.7 pg. It also gave an MCHC (3 h) of 32.8%, an MCV (3 h) of 63.1 fL and a Mono (3 h) of 9.2%. The Neu (3 h) was 17.4%, the PT (3 h) was 12.6 s and the Plat (3 h) was 124.2 x10_4/uL. The RBC (3 h) was 636.2 x10_4/ul, the Ret (3 h) was 8.8% and the WBC (3 h) was 89.8 x10_2/uL. For the same compound, the LIVER (3 h) was 8.5 g, the A/G (3 h) was 2.3 and the ALP (3 h) was 1894.6 IU/L. It also gave an ALT (3 h) of 39 IU/L, an AST (3 h) of 79.4 IU/L and a BUN (3 h) of 13.8 mg/dL. For the same compound, the CRE (3 h) was 0.4 mg/dL, the Ca (3 h) was 11.1 mg/dL and the Cl (3 h) was 103.6 meq/L. For the same compound, the DBIL (3 h) was 0.008 mg/dL, the GLC (3 h) was 182.2 mg/dL and the IP (3 h) was 8.9 mg/dL. The K (3 h) was 3.9 meq/L, the LDH (3 h) was 92.6 IU/L and the Na (3 h) was 140.6 meq/L. It also gave a PL (3 h) of 123.2 mg/dL, an RALB (3 h) of 3.7 g/dL and a TBIL (3 h) of 0.036 mg/dL. For the same compound, the TC (3 h) was 77.4 mg/dL, the TG (3 h) was 49.4 mg/dL and the TP (3 h) was 5.3 g/dL. It also gave a gamma-GTP (3 h) of 1 IU/L, a TERMINAL_BW (6 h) of 197.3 g and an APTT (6 h) of 16.8 s. It also gave a Bas (6 h) of 0%, an Eos (6 h) of 0% and a Fbg (6 h) of 213.4 mg/dL. It also gave a Hb (6 h) of 13.3 g/dL, a Ht (6 h) of 40.7% and a Lym (6 h) of 77.8%. For the same compound, the MCH (6 h) was 20.8 pg, the MCHC (6 h) was 32.7% and the MCV (6 h) was 63.7 fL. The Mono (6 h) was 6.6%, the Neu (6 h) was 15% and the PT (6 h) was 12.6 s. The Plat (6 h) was 136.6 x10_4/uL, the RBC (6 h) was 638.2 x10_4/ul and the Ret (6 h) was 9.1%. It also gave a WBC (6 h) of 84.6 x10_2/uL, an LIVER (6 h) of 8.2 g and an A/G (6 h) of 2.3. The ALP (6 h) was 1068.4 IU/L, the ALT (6 h) was 41.2 IU/L and the AST (6 h) was 75 IU/L. For the same compound, the BUN (6 h) was 11.4 mg/dL, the CRE (6 h) was 0.4 mg/dL and the Ca (6 h) was 11.3 mg/dL. The Cl (6 h) was 103.8 meq/L, the DBIL (6 h) was 0.01 mg/dL and the GLC (6 h) was 185.8 mg/dL. The IP (6 h) was 9.9 mg/dL, the K (6 h) was 3.9 meq/L and the LDH (6 h) was 96 IU/L. The Na (6 h) was 140.6 meq/L, the PL (6 h) was 145.2 mg/dL and the RALB (6 h) was 3.7 g/dL. For the same compound, the TBIL (6 h) was 0.044 mg/dL, the TC (6 h) was 84.8 mg/dL and the TG (6 h) was 45.6 mg/dL. It also gave a TP (6 h) of 5.4 g/dL, a gamma-GTP (6 h) of 0.2 IU/L and a TERMINAL_BW (9 h) of 196.2 g. It also gave an APTT (9 h) of 16.7 s, a Bas (9 h) of 0% and an Eos (9 h) of 0.6%. For the same compound, the Fbg (9 h) was 221.4 mg/dL, the Hb (9 h) was 13 g/dL and the Ht (9 h) was 39.5%. For the same compound, the Lym (9 h) was 82.2%, the MCH (9 h) was 21.4 pg and the MCHC (9 h) was 33%. The MCV (9 h) was 64.8 fL, the Mono (9 h) was 4.6% and the Neu (9 h) was 12.6%. For the same compound, the PT (9 h) was 12.6 s, the Plat (9 h) was 137 x10_4/uL and the RBC (9 h) was 610 x10_4/ul. It also gave a Ret (9 h) of 8.7%, a WBC (9 h) of 86.6 x10_2/uL and an LIVER (9 h) of 8 g. For the same compound, the A/G (9 h) was 2.3, the ALP (9 h) was 1128.2 IU/L and the ALT (9 h) was 30.6 IU/L. The AST (9 h) was 66.8 IU/L, the BUN (9 h) was 11.8 mg/dL and the CRE (9 h) was 0.4 mg/dL. It also gave a Ca (9 h) of 11 mg/dL, a Cl (9 h) of 104.2 meq/L and a DBIL (9 h) of 0.01 mg/dL. The GLC (9 h) was 171.2 mg/dL, the IP (9 h) was 10.2 mg/dL and the K (9 h) was 4.1 meq/L. It also gave an LDH (9 h) of 105 IU/L, a Na (9 h) of 139.6 meq/L and a PL (9 h) of 135.8 mg/dL. The RALB (9 h) was 3.8 g/dL, the TBIL (9 h) was 0.048 mg/dL and the TC (9 h) was 87.6 mg/dL. The TG (9 h) was 34.8 mg/dL, the TP (9 h) was 5.4 g/dL and the gamma-GTP (9 h) was 1 IU/L. For the same compound, the TERMINAL_BW (24 h) was 202.8 g, the APTT (24 h) was 16.4 s and the Bas (24 h) was 0%. The Eos (24 h) was 0.8%, the Fbg (24 h) was 198.6 mg/dL and the Hb (24 h) was 13.3 g/dL. It also gave a Ht (24 h) of 40.7%, a Lym (24 h) of 83.8% and an MCH (24 h) of 20.6 pg. It also gave an MCHC (24 h) of 32.7%, an MCV (24 h) of 63 fL and a Mono (24 h) of 4.6%. The Neu (24 h) was 10.8%, the PT (24 h) was 12.4 s and the Plat (24 h) was 128.6 x10_4/uL. It also gave an RBC (24 h) of 648.4 x10_4/ul, a Ret (24 h) of 7.3% and a WBC (24 h) of 67.6 x10_2/uL. It also gave an LIVER (24 h) of 8.4 g, an A/G (24 h) of 2.5 and an ALP (24 h) of 1301.4 IU/L. The ALT (24 h) was 25.8 IU/L, the AST (24 h) was 61.4 IU/L and the BUN (24 h) was 13.6 mg/dL. It also gave a CRE (24 h) of 0.4 mg/dL, a Ca (24 h) of 11.8 mg/dL and a Cl (24 h) of 104 meq/L. For the same compound, the DBIL (24 h) was 0.01 mg/dL, the GLC (24 h) was 185.8 mg/dL and the IP (24 h) was 8.3 mg/dL. The K (24 h) was 4.1 meq/L, the LDH (24 h) was 66.4 IU/L and the Na (24 h) was 140.2 meq/L. The PL (24 h) was 128 mg/dL, the RALB (24 h) was 4 g/dL and the TBIL (24 h) was 0.042 mg/dL. For the same compound, the TC (24 h) was 74.2 mg/dL, the TG (24 h) was 46.4 mg/dL and the TP (24 h) was 5.5 g/dL. For the same compound, the gamma-GTP (24 h) was 0.6 IU/L.
